Each compound was assayed against T1, Recombinant human KIF18A (1-467 His-tagged) protein (Homo sapiens, UniProt Q8NI77) (assay: KIF18A Enzyme Assay (microtubule-stimulated ATPase activity, ADP-Glo)). Settings: KIF18A protein 30 nM, ATP 75 μM (at Km), 30 μg/mL pig microtubules, ADP-Glo luminescence.
T1 construct: Recombinant human KIF18A (1-467 His-tagged) protein; His; made in house
T1 sequence (Q8NI77 1-467): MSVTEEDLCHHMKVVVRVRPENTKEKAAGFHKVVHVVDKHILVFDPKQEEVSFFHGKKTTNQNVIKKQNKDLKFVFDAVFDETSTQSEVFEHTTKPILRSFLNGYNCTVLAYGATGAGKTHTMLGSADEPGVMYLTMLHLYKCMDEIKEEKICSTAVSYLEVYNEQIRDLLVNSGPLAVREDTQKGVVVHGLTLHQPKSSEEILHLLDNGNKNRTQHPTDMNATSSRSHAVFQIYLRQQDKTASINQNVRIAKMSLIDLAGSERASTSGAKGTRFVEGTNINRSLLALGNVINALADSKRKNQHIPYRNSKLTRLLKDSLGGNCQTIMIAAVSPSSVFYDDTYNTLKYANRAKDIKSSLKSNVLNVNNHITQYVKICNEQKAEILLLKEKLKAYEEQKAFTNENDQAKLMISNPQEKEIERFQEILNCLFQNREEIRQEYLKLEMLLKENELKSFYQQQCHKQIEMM
T1 sequence (P02550 whole entry partner): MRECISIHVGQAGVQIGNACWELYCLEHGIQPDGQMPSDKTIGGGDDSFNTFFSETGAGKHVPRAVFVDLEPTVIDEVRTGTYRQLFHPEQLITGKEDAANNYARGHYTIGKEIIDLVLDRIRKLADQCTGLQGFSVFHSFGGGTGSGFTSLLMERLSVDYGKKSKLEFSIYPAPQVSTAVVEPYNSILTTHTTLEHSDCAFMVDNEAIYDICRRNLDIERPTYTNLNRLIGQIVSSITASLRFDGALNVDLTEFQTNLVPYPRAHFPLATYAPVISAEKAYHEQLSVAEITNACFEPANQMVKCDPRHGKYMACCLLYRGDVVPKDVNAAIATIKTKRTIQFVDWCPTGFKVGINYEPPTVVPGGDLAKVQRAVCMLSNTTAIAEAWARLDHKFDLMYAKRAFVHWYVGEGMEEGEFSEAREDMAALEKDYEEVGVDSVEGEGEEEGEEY
T1 sequence (P02554 whole entry partner): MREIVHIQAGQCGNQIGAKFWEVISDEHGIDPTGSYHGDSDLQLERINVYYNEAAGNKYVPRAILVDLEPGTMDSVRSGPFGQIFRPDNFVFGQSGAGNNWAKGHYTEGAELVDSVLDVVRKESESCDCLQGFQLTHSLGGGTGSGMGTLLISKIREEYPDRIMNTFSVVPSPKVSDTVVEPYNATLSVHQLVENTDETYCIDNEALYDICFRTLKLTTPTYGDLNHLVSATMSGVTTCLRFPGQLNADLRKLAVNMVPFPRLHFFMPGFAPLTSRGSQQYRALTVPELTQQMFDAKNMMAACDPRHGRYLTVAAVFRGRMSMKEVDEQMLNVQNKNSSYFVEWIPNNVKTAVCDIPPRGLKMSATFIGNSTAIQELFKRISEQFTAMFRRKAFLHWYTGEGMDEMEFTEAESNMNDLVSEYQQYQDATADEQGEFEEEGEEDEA
Assay type: biochemical
Source text: For compounds in Table A, the following assay conditions were employed:
KIF18A Enzyme Assay: Microtubule-stimulated ATPase activity assay is used to measure KIF18A enzyme activity after treatment with compound. Compounds were 2-fold serially diluted in DMSO (Sigma Inc) over 22-point concentration range. Recombinant human KIF18A (1-467 His-tagged) protein was expressed using a baculovirus system and purified by affinity chromatography by Amgen Inc. Concentrations of KIF18A protein, microtubules (MT), and ATP in the reaction were optimized for standardized homogenous enzyme assay using ADP-Glom Kinase/ATPase Assay Kit (Promega Inc). The assay measures ADP formed from the ATPase reaction. […] Read luminescence using EnVision microplate reader with ultra-luminescence module (Perkin Elmer Inc). Concentration-response curve-fitting and IC50 determination was performed using Genedata Screener Software (Standard 15.0.1, Genedata Inc) with a four-parameter logistic regression fit model.
An IC50 of 545 nM was found for CC(C)(CO)Nc1cnc(C(=O)Nc2cccc(N3CCS(=O)(=O)CC3)c2)c(N2CCC3(CC2)CC3)n1 [Example 101-6, N-(3-(1,1-dioxidothiomorpholino)phenyl)-5-((1-hydroxy-2-methylpropan-2-yl)amino)-3-(6-azaspiro[2.5]octan-6-yl)pyrazine-2-carboxamide] in this work.
An IC50 of 768 nM was found for CC(C)(CO)Nc1cnc(C(=O)Nc2cccc(N3CCOCC3)c2)c(N2CCC3(CC2)CC3)n1 [Example 101-7, 5-((1-hydroxy-2-methylpropan-2-yl)amino)-N-(3-morpholinophenyl)-3-(6-azaspiro[2.5]octan-6-yl)pyrazine-2-carboxamide] in this work.
An IC50 of 240 nM was found for CC(C)(CO)Nc1cccc(NC(=O)c2ncc(NC(C)(C)CO)nc2N2CCC3(CC2)CC3)c1 [Example 101-8, 5-((1-hydroxy-2-methylpropan-2-yl)amino)-N-(3-((1-hydroxy-2-methylpropan-2-yl)amino)phenyl)-3-(6-azaspiro[2.5]octan-6-yl)pyrazine-2-carboxamide] in this work.
An IC50 of 77 nM was found for CC(C)(CO)Nc1cnc(C(=O)Nc2cccc(S(=O)(=O)C3CCCC3)c2)c(N2CCC3(CC2)CC3)n1 [Example 103, N-(3-(Cyclopentylsulfonyl)phenyl)-5-((1-hydroxy-2-methylpropan-2-yl)amino)-3-(6-azaspiro[2.5]octan-6-yl)pyrazine-2-carboxamide] in this work.
An IC50 of 135 nM was found for CC(C)(CO)Nc1cnc(C(=O)Nc2cccc(S(=O)(=O)N3CCCCC3)c2)c(N2CCC3(CC2)CC3)n1 [Example 103-1, 5-((1-hydroxy-2-methylpropan-2-yl)amino)-N-(3-(piperidin-1-ylsulfonyl)phenyl)-3-(6-azaspiro[2.5]octan-6-yl)pyrazine-2-carboxamide] in this work.
An IC50 of 143 nM was found for O=C(Nc1cccc(S(=O)(=O)C2CCCC2)c1)c1ncc(NC2(CO)CC2)nc1N1CCC2(CC1)CC2 [Example 103-2, N-(3-(cyclopentylsulfonyl)phenyl)-5-((1-(hydroxymethyl)cyclopropyl)amino)-3-(6-azaspiro[2.5]octan-6-yl)pyrazine-2-carboxamide] in this work.
An IC50 of 139 nM was found for CC(C)(C)NS(=O)(=O)c1cccc(NC(=O)c2ncc(NC3(CO)CC3)nc2N2CCC3(CC2)CC3)c1 [Example 103-3, N-(3-(N-(tert-butyl)sulfamoyl)phenyl)-5-((1-(hydroxymethyl)cyclopropyl)amino)-3-(6-azaspiro[2.5]octan-6-yl)pyrazine-2-carboxamide] in this work.
An IC50 of 406 nM was found for CC(C)(O)CNc1cnc(C(=O)Nc2cccc(S(=O)(=O)N3CCCCC3)c2)c(N2CCC3(CC2)CC3)n1 [Example 103-4, 5-((2-hydroxy-2-methylpropyl)amino)-N-(3-(piperidin-1-ylsulfonyl)phenyl)-3-(6-azaspiro[2.5]octan-6-yl)pyrazine-2-carboxamide] in this work.
An IC50 of 135 nM was found for CC(C)(C)NS(=O)(=O)c1cccc(NC(=O)c2ncc(NC(C)(C)CO)nc2-c2ccc(Cl)cc2)c1 [Example 104, N-(3-(N-(tert-butyl)sulfamoyl)phenyl)-3-(4-chlorophenyl)-5-((1-hydroxy-2-methylpropan-2-yl)amino)pyrazine-2-carboxamide] in this work.
An IC50 of 418 nM was found for CC(C)(C)NS(=O)(=O)c1cccc(NC(=O)c2ncc(NC(C)(C)CO)nc2-c2ccc(F)cc2)c1 [Example 104-1, N-(3-(N-(tert-butyl)sulfamoyl)phenyl)-3-(4-fluorophenyl)-5-((1-hydroxy-2-methylpropan-2-yl)amino)pyrazine-2-carboxamide] in this work.
An IC50 of 168 nM was found for CC(C)(C)NS(=O)(=O)c1cccc(NC(=O)c2ncc(NC(C)(C)CO)nc2-c2ccc(C(F)(F)F)cc2)c1 [Example 104-2, N-(3-(N-(tert-butyl)sulfamoyl)phenyl)-5-((1-hydroxy-2-methylpropan-2-yl)amino)-3-(4-(trifluoromethyl)phenyl)pyrazine-2-carboxamide] in this work.
An IC50 of 146 nM was found for CCc1ccc(-c2nc(NC(C)(C)CO)cnc2C(=O)Nc2cccc(S(=O)(=O)NC(C)(C)C)c2)cc1 [Example 104-3, N-(3-(N-(tert-butyl)sulfamoyl)phenyl)-3-(4-ethylphenyl)-5-((1-hydroxy-2-methylpropan-2-yl)amino)pyrazine-2-carboxamide] in this work.
An IC50 of 141 nM was found for CC(C)c1ccc(-c2nc(NC(C)(C)CO)cnc2C(=O)Nc2cccc(S(=O)(=O)NC(C)(C)C)c2)cc1 [Example 104-4, N-(3-(N-(tert-butyl)sulfamoyl)phenyl)-5-((1-hydroxy-2-methylpropan-2-yl)amino)-3-(4-isopropylphenyl)pyrazine-2-carboxamide] in this work.
An IC50 of 103 nM was found for CC(C)(C)NS(=O)(=O)c1cccc(NC(=O)c2ncc(NC(C)(CO)CO)nc2N2CCC3(CC2)CC3)c1 [Example 106, N-(3-(N-(tert-butyl)sulfamoyl)phenyl)-5-((1,3-dihydroxy-2-methylpropan-2-yl)amino)-3-(6-azaspiro[2.5]octan-6-yl)pyrazine-2-carboxamide] in this work.
